In brackets after ≈: the same amount, converted by molar mass. Where two headings read alike, the source gives them in different places.
Assays:
[1] = system: vancomycin-resistant Enterococcus faecalis (ATCC51575); assay: microbe, parasite or virus in culture; assay type: cell-based; details: ATCC51575; vancomycin-resistant Enterococcus faecalis; read-out: Antibacterial activity, VREFs (vancomycin-resistant EFs), MIC class
[2] = system: Streptococcus pneumoniae (Chester, ATCC49619); assay: Broth microdilution MIC assay, Streptococcus pneumoniae; assay type: cell-based; details: for Antibacterial activity Streptococcus pneumoniae: MIC class score, MIC100, broth microdilution; for MIC: Streptococcus pneumoniae, ATCC49619, read-out: Antibacterial activity, SP (Streptococcus pneumoniae), MIC class
[3] = system: daptomycin-resistant Staphylococcus aureus (from MRSA COL); assay: Broth microdilution MIC assay, daptomycin-resistant MRSA; assay type: cell-based; details: 24 h, read-out: Antibacterial activity, MRSA strains with additional resistance, D (daptomycin), MIC class
[4] = system: Staphylococcus aureus MRSA (COL); assay: Broth microdilution MIC assay, Staphylococcus aureus MRSA (COL); assay type: cell-based; details: for MIC: Staphylococcus aureus, MRSA, read-out: Antibacterial activity, MRSA (Staphylococcus aureus MRSA), MIC class; for Antibacterial activity Staphylococcus aureus (MRSA): MIC class score, MIC100, broth microdilution, COL strain
[5] = system: Staphylococcus epidermidis (PCI 1200, ATCC12228); assay: Broth microdilution MIC assay, Staphylococcus epidermidis; assay type: cell-based; details: read-out: Antibacterial activity, SE (Staphylococcus epidermidis), MIC class
[6] = system: Mycobacterium smegmatis (mc(2)155); assay: Broth microdilution MIC assay, Mycobacterium smegmatis
[7] = system: Enterococcus faecalis (ATCC29212); assay: Broth microdilution MIC assay, Enterococcus faecalis; assay type: cell-based; details: read-out: Antibacterial activity, EFs (Enterococcus faecalis), MIC class
[8] = system: vancomycin-resistant Enterococcus faecium (ATCC51559); assay: microbe, parasite or virus in culture; assay type: cell-based
[9] = system: Enterococcus faecium (AGR15, ATCCBAA-2127); assay: Broth microdilution MIC assay, Enterococcus faecium; assay type: cell-based; details: ATCCBAA2127, read-out: Antibacterial activity, EFm (Enterococcus faecium), MIC class
[10] = system: Staphylococcus aureus MSSA (Newman); assay: Broth microdilution MIC assay, Staphylococcus aureus MSSA (Newman); assay type: cell-based; details: for Antibacterial activity Staphylococcus aureus (MSSA): MIC class score, MIC100, broth microdilution, Newman strain
[11] = system: MRSA (COL) resistant to triclosan; assay: Broth microdilution MIC assay, triclosan-resistant MRSA; details: Staphylococcus aureus, read-out: Antibacterial activity, MRSA strains with additional resistance, T (triclosan), MIC class
[12] = system: platensimycin-resistant Staphylococcus aureus (from MRSA COL); assay: Broth microdilution MIC assay, platensimycin-resistant MRSA; assay type: cell-based; details: 24 h, read-out: Antibacterial activity, MRSA strains with additional resistance, P (platensimycin), MIC class
[13] = ATCC51559, vancomycin-resistant Enterococcus faecium, read-out: Antibacterial activity, VREFm (vancomycin-resistant EFm), MIC class

| SMILES | MIC [1] [µg/mL] | Antibacterial activity Streptococcus pneumoniae [2] | MIC [2] [µg/mL] | MIC [7] [µg/mL] | MIC [8, 13] [µg/mL] | also measured |
| --- | --- | --- | --- | --- | --- | --- |
| Cc1[nH]c(-c2ccc(-c3cccc(Cl)c3Cl)o2)nc1-c1ccccc1 [compound 2] | 20 to 50 (≈ 54.2 to 135 µM) | 3 (MIC100 of 2-5 μg/ml) | – | – | – | MIC [3]: 3 to 10 µg/mL (≈ 8.12 to 27.1 µM) |
| Cc1[nH]c(-c2ccc(-c3ccccc3Cl)o2)nc1-c1ccccc1 [compound 3] | – | – | < 1 | – | – | MIC [4]: 11 to 20 µg/mL (≈ 32.9 to 59.7 µM); MIC [5]: 11 to 20 µg/mL (≈ 32.9 to 59.7 µM) |
| Cc1[nH]c(-c2ccc(-c3ccccc3F)s2)nc1-c1ccccc1 [compound 15] | – | – | – | – | – | Antibacterial activity, MS (Mycobacterium smegmatis), MIC class [6]: 2 (MIC100 of 11-20 μg/ml) |
| Cc1nc(-c2ccc(-c3ccc(Cl)cc3Cl)o2)[nH]c1-c1ccc(F)cc1 [compound 16] | 20 to 50 (≈ 51.6 to 129 µM) | – | 2 to 5 (≈ 5.16 to 12.9 µM) | 20 to 50 (≈ 51.6 to 129 µM) | 20 to 50 (≈ 51.6 to 129 µM) | – |
| Cc1[nH]c(-c2ccc(-c3ccccc3C(F)(F)F)o2)nc1-c1ccccc1 [compound 17] | – | 3 (MIC100 of 2-5 μg/ml) | 2 to 5 (≈ 5.43 to 13.6 µM) | – | – | MIC [9]: 20 to 50 µg/mL (≈ 54.3 to 136 µM) |
| Cc1[nH]c(-c2ccc(-c3ccccc3OC(F)(F)F)o2)nc1-c1ccccc1 [compound 18] | 20 to 50 (≈ 52 to 130 µM) | 3 (MIC100 of 2-5 μg/ml) | 2 to 5 (≈ 5.2 to 13 µM) | 20 to 50 (≈ 52 to 130 µM) | 20 to 50 (≈ 52 to 130 µM) | MIC [9]: 20 to 50 µg/mL (≈ 52 to 130 µM) |
| Cc1nc(-c2ccc(-c3ccccc3OC(F)(F)F)o2)[nH]c1-c1cccc(Cl)c1 [compound 21] | 20 to 50 (≈ 47.8 to 119 µM) | – | – | 20 to 50 (≈ 47.8 to 119 µM) | 20 to 50 (≈ 47.8 to 119 µM) | Antibacterial activity Staphylococcus aureus (MSSA) [10]: 3 (MIC100 of 3-10 μg/ml); Antibacterial activity Staphylococcus aureus (MRSA) [4]: 3 (MIC100 of 3-10 μg/ml); MIC [4]: 3 to 10 µg/mL (≈ 7.16 to 23.9 µM); MIC [11]: 3 to 10 µg/mL (≈ 7.16 to 23.9 µM); MIC [12]: 3 to 10 µg/mL (≈ 7.16 to 23.9 µM) |
| Cc1nc(-c2ccc(-c3ccccc3C(F)(F)F)o2)[nH]c1-c1cccc(Cl)c1 [compound 22] | – | 3 (MIC100 of 2-5 μg/ml) | 2 to 5 (≈ 4.97 to 12.4 µM) | – | – | Antibacterial activity Staphylococcus aureus (MSSA) [10]: 2 (MIC100 of 11-20 μg/ml); MIC ([10]; Staphylococcus aureus, read-out: Antibacterial activity, MSSA (Staphylococcus aureus MSSA), MIC class): 11 to 20 µg/mL (≈ 27.3 to 49.7 µM) |
| Cc1[nH]c(-c2ccc(-c3ccccc3OC(F)(F)F)o2)nc1-c1ccc(F)cc1 [compound 23, 4-(4-Fluoro-phenyl)-5-methyl-2-[5-(2-trifluoromethoxy-phenyl)-furan-2-yl]-1H-imidazole] | 20 to 50 (≈ 49.7 to 124 µM) | – | – | 20 to 50 (≈ 49.7 to 124 µM) | 20 to 50 (≈ 49.7 to 124 µM) | MIC [9]: 20 to 50 µg/mL (≈ 49.7 to 124 µM) |
| Cc1nc(-c2ccc(-c3ccccc3OC(F)(F)F)o2)[nH]c1-c1ccc(Br)cc1 [compound 29] | – | 3 (MIC100 of 2-5 μg/ml) | 2 to 5 (≈ 4.32 to 10.8 µM) | – | – | Antibacterial activity Staphylococcus aureus (MRSA) [4]: 2 (MIC100 of 11-20 μg/ml) |
| Cc1[nH]c(-c2ccn(-c3ccccc3C(F)(F)F)c2)nc1-c1ccccc1 [compound 33] | – | – | 6 to 10 (≈ 16.3 to 27.2 µM) | – | – | MIC [5]: 11 to 20 µg/mL (≈ 29.9 to 54.4 µM) |
| Cc1[nH]c(-c2cc(C)n(-c3cccc(C(F)(F)F)c3)c2C)nc1-c1ccccc1 [compound 36] | – | – | 2 to 5 (≈ 5.06 to 12.6 µM) | – | – | Antibacterial activity Staphylococcus aureus (MRSA) [4]: 2 (MIC100 of 11-20 μg/ml) |
| Cc1nc(-c2ccc(-c3cccc(OC(F)(F)F)c3)o2)[nH]c1-c1ccc(F)cc1 [compound 37] | 20 to 50 (≈ 49.7 to 124 µM) | – | < 1 | 20 to 50 (≈ 49.7 to 124 µM) | 20 to 50 (≈ 49.7 to 124 µM) | Antibacterial activity, MS (Mycobacterium smegmatis), MIC class [6]: 2 (MIC100 of 11-20 μg/ml) |
| Cc1[nH]c(-c2ccc(-c3cccc(C(F)(F)F)c3)o2)nc1-c1ccc(F)cc1 [compound 38] | – | 3 (MIC100 of 2-5 μg/ml) | 2 to 5 (≈ 5.18 to 12.9 µM) | 20 to 50 (≈ 51.8 to 129 µM) | – | MIC ([8]; Enterococcus faecium, ATCC51559, read-out: Antibacterial activity, VREFm (vancomycin-resistant EFm), MIC class): 20 to 50 µg/mL (≈ 51.8 to 129 µM) |
| Cc1[nH]c(-c2ccc(-c3ccc(Cl)c(C(F)(F)F)c3)o2)nc1-c1ccccc1 [compound 39] | 20 to 50 (≈ 49.7 to 124 µM) | – | < 1 | 20 to 50 (≈ 49.7 to 124 µM) | 20 to 50 (≈ 49.7 to 124 µM) | – |
| Cc1nc(-c2ccc(-c3ccc(Cl)c(OC(F)(F)F)c3)o2)[nH]c1-c1ccccc1 [compound 41] | 20 to 50 (≈ 47.8 to 119 µM) | – | – | 20 to 50 (≈ 47.8 to 119 µM) | 20 to 50 (≈ 47.8 to 119 µM) | MIC [5]: 11 to 20 µg/mL (≈ 26.3 to 47.8 µM) |
| Cc1[nH]c(-c2ccc(-c3ccc(Cl)c(C(F)(F)F)c3)o2)nc1-c1ccc(F)cc1 [compound 42] | 11 to 20 (≈ 26.1 to 47.5 µM) | – | – | 11 to 20 (≈ 26.1 to 47.5 µM) | 20 to 50 (≈ 47.5 to 119 µM) | MIC [9]: 20 to 50 µg/mL (≈ 47.5 to 119 µM) |
| Cc1nc(-c2ccc(-c3ccc(Cl)c(OC(F)(F)F)c3)o2)[nH]c1-c1ccc(F)cc1 [compound 43] | – | – | – | 20 to 50 (≈ 45.8 to 114 µM) | – | Antibacterial activity Staphylococcus aureus (MRSA) [4]: 2 (MIC100 of 11-20 μg/ml) |

From patent US10456379B2, “Imidazole-based antimicrobial agents” (priority 2014, dated 2019)
